Read-outs that look alike come from different tables or passages of the source. Blank lines part the entries; values can stand above or below the molecule they belong to.
Columns and labels:
CT26‐luc cells = test: Annexin V-FITC/propidium iodide (AV/PI) cell viability assay by flow cytometry; format: cell-based, mouse; settings: in the dark, 24 h
Protocol: Following the gold standard assessment method, the Annexin V‐FITC/propidium iodide (AV/PI) dual staining assay was conducted to screen the suitable concentrations of each drug (Figure S25). In addition, to better monitor tumor growth in vivo, luciferase‐labelled tumor cells (CT26‐luc) were used for in vivo experiments by bioluminescence imaging. […] As the concentration of each drug was increased, the proportion of live cells decreased, while the percentage of dying cells (Q3, Annexin V^+/PI^−) and dead cells (Q2, Annexin V^+/PI^+ and Q1, Annexin V^−/PI^+) increased. The concentrations at which approximately 5% of the cells remained alive (IC95) were 600 µM for Cisplatin in the dark, 1.8 µM for Os2, and 6.5 µM for Ce6 upon 740 nm LED light irradiation (60 min, 12.6 J cm^−2). These concentrations were selected for the subsequent in vivo vaccination studies. […]
incubated for 24 h. Cells were then treat ed with the determined IC50 of complexes and irradiated or kept in the dark. Supernatants were collected 12 h post-t reatm ent, and the extracellular ATP content was measured with Adenosine 5′ -triphosphate (ATP) Bioluminescent Assay Kit (Sigma-Aldrich) according tomanufacturer ’s ins truction. […]
(§1) 556419) and PI (BD Biosciences, Catalog no.51- 66211E). CT26- luc cells were analyzed by flow cytometry (Beckm an Coulter Life Sciences, CytoFLEX LX Flow Cytometer). […]

MCA205 cells [1] = test: as above; format: cell-based, mouse; settings: MCA205, in the dark
Text: Regarding the optimal dose of each drug for in vivo vaccination, we continued to follow the same standards as with CT26‐luc cells, using the concentration of each drug that results in approximately 5% of live cells as the in vivo dose. The testing method remained the same, using the AV/PI dual staining assay. Negative controls still included the untreated group (direct injection of PBS solution) and the non‐ICD inducer Cisplatin. Based on the in vitro HMGB‐1 release results, Ce6 was maintained as the positive control. For a more comprehensive comparison, we also added the platinum‐based chemotherapeutic agent Oxaliplatin as a non‐PS ICD inducer, serving as an additional positive control.
As the drug concentration increased, the cells gradually shifted to dying (Q3, Annexin V^+/PI^−) or dead (Q2, Annexin V^+/PI^+ and Q1, Annexin V^−/PI^+) state. For MCA205 cells, the concentrations corresponding to approximately 5% cell survival for each drug were 500 µM Cisplatin and 1400 µM Oxaliplatin in the dark, 5.5 µM Ce6 and 3 µM Os2 under 740 nm LED light illumination. […]
incubated for 24 h. Cells were then treat ed with the determined IC50 of complexes and irradiated or kept in the dark. Supernatants were collected 12 h post-t reatm ent, and the extracellular ATP content was measured with Adenosine 5′ -triphosphate (ATP) Bioluminescent Assay Kit (Sigma-Aldrich) according tomanufacturer ’s ins truction.
Cell viability assay f o r in vivo by flow cytometry
CT26-luc or MCA205 cells were seeded in 6-well plates at a density of 1 ×1 05 cells per well and cultured for 24 h at 37 °C with 5% CO 2. The medium was replaced by various concentrations of the compound dilutions in fresh medium.For Ce6 and Os2, after 4 h incubation in the dark, the medium w as r efr eshed and the plates wer e illuminated with a LUMOS-BIO photoreactor (Atlas Photonics), followed by an additional 20- h incubation in the dark. […]
as §1

MCA205 cells [2] = test: In vivo vaccination and rechallenge, MCA205 model; parameters: species or system C57BL/6 mice; settings: vaccination with MCA205 cells pre-treated with 500 µM Cisplatin or 1400 µM Oxaliplatin (dark), 5.5 µM Ce6 or 3 µM Os2 (740 nm)
Text: Next, we used these concentrations in the MCA205 vaccination and rechallenge model on C57BL/6 mice to test the in vivo ICD effect of Os2, following the same experimental procedure as that used for CT26‐luc cells in Figure 5A. […] Body weights remained stable across all groups throughout the study, further supporting the good in vivo biosafety of Os2.
The BALB/c female mice were randomly divided into 4 groups with each group containing 5 mice, which were named as Control group, Cisplatin group, Ce6 group and Os2 group. CT26-luc cells wer e treat ed in vitro with 600 µM Cisplatin in the dark, 6.5 µM Ce6 or 1.8 µM Os2 upon 740 nm LED light irradiation (60 min, 12.6 J cm-2) following the methods described above. Subsequently, treated CT26-luc cells (3×10^5 cells in 100 µ L sterile PBS) or 100 µ L sterile PB S were injected subcutaneously into the left flank of each mouse. One week later, mice were r echalleng ed by injection with untreated CT26- luc cells (1×10^6 cells in 100 µL sterile PBS). The mice were monitored by an in vivo imaging system (Biospace Lab, Photon Imager Optima) and the tumor volume was calculated with the following equation: tumor volume = width 2 × length × […]
In vivo vaccination study on MCA205 cells
The C57BL/6 mice were randomly divided into 5 groups with each group containing 10 mice, whi ch w ere nam ed as Control group, Cisplatin group, Oxaliplatin group, Ce6 group and Os2 group. M CA205 cells were treated in vitro with 500 µM Cisplatin o r 1400 µM Oxaliplatin in the dark, 5.5 µM Ce6 or 3 µM Os2 upon 740 nm LED light irradiation (60 min, 12.6 J cm-2) following the methods described above. Subsequently, treated MCA205 cells (3 ×10^5 cells in 100 µ L sterile PBS) or 100 µ L sterile PBS were injected subcutaneously into the left flank of each mouse. One week later, mice were rechallenged by injection with untreated MCA205 cells (1×10^6 cells in 100 µ L sterile PBS). The tumor volume was calculated with the following equation: tumor volume =

[3] = tested on: mouse fibrosarcoma (MCA205) cells; test: Resazurin cell viability assay, phototoxicity; format: cell-based; settings: MCA-205, light or radiation study, 1 h, MCA205, 740 nm, 60 min, 12.60 J/cm2
Protocol: (100 U ml−1), streptomycin (100 U ml−1), and 1% L-glutamine. The murine fibrosarcom a (MCA205) cells were cultured in RPMI 1640 medium with 10% fetal bovine serum (FBS), penicillin (100 U ml−1), streptomycin (100 U ml−1), and 1% L-glutamine. All cells were incubated at 37 °C in a humidified atmosphere with 5 % CO2.
(§2) Normoxia. The in vitro viability of cells exposed to the complexes was determined using a resazurin assay. C ells were seeded in 96-well plates at densities of 4,000 cells/well for CT26, MC A205 and U-87 MG cells, and 8,000 cells/well for MRC-5 and NIH/3T3 cells. A fter 24 h of growth at 37 °C wit h 5% CO2, the medium was replaced with fresh medium containing various concentrations of the compounds . Following a 4- h incubation in the dark, the medium was refres hed , and the plates were exposed to irradiation usinga LUM OS -BIO photoreactor (At las Photonics).N on- ir rad iated plates were similarly refr eshed with medium and kept in the dark for the same duration. After a 40- h r ecov ery period, a f reshly pr epar ed resazurin solution (0.2 mg/mL) was added to each well, and the plates were left in the dark for 4 h before analysis on a B i o Te k Cytation 5 Cell Imaging Multimode Reader (Agil ent Technologies). […]

[4] = tested on: mouse colon adenocarcinoma (CT26) cells; test: Resazurin cell viability assay, (photo)cytotoxicity, normoxia; format: cell-based; settings: for IC50: Mus musculus, normoxia
Protocol: Given that most ICD studies focus on breast, non‐small cell lung carcinoma, and colon cancer, and since ICD was first discovered in mouse colon cancer cells (CT26), we initially tested our compounds on CT26 cells. Cells were incubated with nine different concentrations (mainly from 0.01 to 100 µM) of the compounds for 4 h in the dark. Then, the diluted solutions containing the compounds were replaced by fresh medium, and the cells were either illuminated or kept in the dark for 1 h more. After 2 days, IC50 values (concentration of the agent inhibiting cell growth by 50%) were determined with the resazurin assay, using chlorin e6 (Ce6) and protoporphyrin IX (PpIX) for comparison (Figure S10). The clinically approved chlorin mixture Radachlorin contains ∼80% Ce6, while 5‐aminolevulinic acid (Ameluz and Levulan) and methyl 5‐aminolevulinate (Metvix and Metvixia) serve as precursors of PpIX. Therefore, Ce6 and PpIX were used for comparison purposes.
(100 U ml−1), streptomycin (100 U ml−1), and 1% L-glutamine. […]
All cells were incubated at 37 °C in a humidified atmosphere with 5 % CO2.
as §2

[5] = Photophysical properties (fluorescence and singlet oxygen quantum yield, lifetime); format: physicochemical; settings: in ethanol
Protocol: System Inc, Phoenixville, PA, USA). The excitation beam is separated by a SPEX dual […]
network monochromator (1200 lines / mm blazed at 330 nm). The fluorescence was […]
measured by the UV-Visible detector via the SPEX dual network emission […]
monochromator (1200 lines / mm blazed at 500 nm). Singlet oxygen production was […]
measured with an infrared detector InGaAs (800 - 1550 nm) via the dual network […]
emission monochromator SPEX (600 lines / mm blazed at 1 µm).
All spectra were measured using 4-sided quartz cells. The absorption values of the […]
references and samples at the excitation wavelength were adjusted to 0.2. All emission […]
spectra were normalized to the same absorbance for the purpose of comparison.
[Ru(bpy)3]2+ in acetonitrile was chosen as standard for both fluorescence and singlet […]
oxygen quantum yield determination. Fluorescence quantum yield of [ Ru(bpy)3]2+ i n […]
acetonitrile is evaluated at 0.077.[5] Singlet oxygen quantum yield of [ Ru(bpy)3]2+ i n […]
acetonitrile is evaluat ed at 0.77.[6]
Time-resolved experiments were performed using for excitation: a pulsed laser diode […]
emitting at 407 nm (LDH-P-C-400M, FWHM < 70 ps, 1 MHz) coupled with a driver […]
PDL 800- D (both PicoQuant GmbH, BERLIN, Germany) and for detection: an […]
avalanch e photodiode SPCM-AQR-15 (EG & G, VAUDREUIL, Can ada) coupled with […]
a 650 nm long- wav e p ass filter as det ection system. The acquisition was p erformed by […]
a PicoHarp 300 module with a 4 channels router PHR-800 (both PicoQuant GmbH, […]
BERLIN, Germany ). Th e fluores cence decays were recorded using the single photon […]
counting method. Data were collected up to 1000 counts accumulated in the maximum […]
channel and analyzed using Time Correlated Single Photon Counting (TCSPC) […]
software Fluofit (PicoQuant GmbH, BERLIN, Germany) based on iterative reconvolution using a Levensberg- M arquandt alg oritm, enabling the obtention of multi-exponential profiles (m ainly one or two exponenti als in our cases ). […]

[6] = standard, in acetonitrile; cited from earlier work

SMILES: N.N.[Cl][Pt][Cl] [Cisplatin]
Concentration at which approximately 5% of the cells remained alive (IC95) (CT26‐luc cells): 600 µM
Concentration corresponding to approximately 5% cell survival (MCA205 cells [1]): 500 µM
Tumor growth (MCA205 cells [2]): Almost no inhibition

SMILES: Cc1cc(O)c2c(=O)c3c(O)cc(O)c4c5c(O)cc(O)c6c(=O)c7c(O)cc(C)c8c1c2c(c34)c(c78)c65 [Hypericin]
IC50 [3]: 1.66 ± 0.18 µM

SMILES: O=C1[O][Pt]2([NH][C@@H]3CCCC[C@H]3[NH]2)[O]C1=O [Oxaliplatin]
Concentration corresponding to approximately 5% cell survival (MCA205 cells [1]): 1400 µM
Tumor growth (MCA205 cells [2]): partial suppression

Fluorescence lifetime [5]: 12.1 ns
Fluorescence quantum yield [5]: 0.05
Singlet oxygen quantum yield [5]: 0.77
SMILES: C=CC1=C(C)c2cc3[nH]c(cc4nc(cc5[nH]c(cc1n2)c(C)c5CCC(=O)O)C(CCC(=O)O)=C4C)c(C)c3C=C [PpIX, protoporphyrin IX]
PI (phototoxicity index, IC50 dark/IC50 light) ([4]; CT26, 620 nm): >110
IC50 ([4]; CT26, CT26, dark, read-out: IC50 Dark): > 100 µM
IC50 ([4]; CT26, light or radiation study, 1 h, CT26, 620 nm, 1.88 mW/cm^2, 60 min, read-out: IC50 620 nm (1 h, 6.75 J/cm^2)): 0.91 ± 0.1 µM
IC50 [3]: 4.41 ± 0.09 µM

SMILES: [Ru+2].c1ccc(-c2ccccn2)nc1.c1ccc(-c2ccccn2)nc1.c1ccc(-c2ccccn2)nc1 [[Ru(bpy)3]2+]
Fluorescence quantum yield [6]: 0.077
Singlet oxygen quantum yield [6]: 0.77
